# Data: patent publication US4775680A, “Cyclohept[b]indolealkanoic acids, pharmaceutical compositions and use” (Merck & Co., Inc., priority 1987, dated 1988)
# Tests used:
# [1] = molecular target: T1, guinea pig tracheal chain (Cavia porcellus, UniProt A0A286Y4I8); experiment: Estimation of pA2 values in guinea pig tracheal chain (agonist U-44069); format: cell-based, guinea pig (male albino Hartley strain); conditions: for Kb: logarithmic scale, agonist U-44069, guinea pig tracheal chain
# T1 construct: The trachea was removed, freed of extraneous tissue and sectioned into rings; from tissue; host or cells: guinea pig trachea (male albino Hartley strain)
# T1 sequence (A0A286Y4I8 1-347): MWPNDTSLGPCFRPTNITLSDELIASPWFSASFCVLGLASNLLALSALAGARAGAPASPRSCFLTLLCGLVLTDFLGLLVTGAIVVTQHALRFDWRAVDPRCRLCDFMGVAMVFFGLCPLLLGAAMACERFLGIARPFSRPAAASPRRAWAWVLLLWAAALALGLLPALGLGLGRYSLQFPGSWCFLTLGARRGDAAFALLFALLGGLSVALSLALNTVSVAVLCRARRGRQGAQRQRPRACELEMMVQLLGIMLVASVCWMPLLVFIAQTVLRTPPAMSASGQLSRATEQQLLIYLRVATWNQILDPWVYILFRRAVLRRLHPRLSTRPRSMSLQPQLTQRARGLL
# Text: ESTIMATION OF pA2 VALUES IN GUINEA PIG TRACHEAL CHAIN
# Male albino Hartley strain guinea pigs (300-350 gm) were sacrificed by a blow to the head and exsanguinated. The trachea was removed, freed of extraneous tissue and sectioned into rings of 1-2 mm thickness. Five rings were tied together in series, ensuring that the tracheal muscle lay in the same vertical plane, and the cartilage of each ring then separated at a point directly opposite the muscle. The chains were suspended under 1 gm resting tension in modified Krebs solution (NaCl, 6.87; NaHCO3, 2.1; dextrose, 2.1; KCl, 0.32; CaCl2, 0.28; MgSO4, 7H2 O, 0.11; KH2 PO4, 0.16; gm/L: equilibrated with 5% CO2 in O2 for 1 hour) containing indomethacin (1.4×10-^5 M) to suppress endogenous protaglandin synthesis, Organ bath temperature was maintained at 37° C. and 5% CO2 in O2 diffused continously. Isometric tension changes were recorded from a Gould-Statham (UTC 2) force displacement transducer connected to a Beckman Type R Dynograph. For assay purposes initial maximal contractions were elicited with a high concentration of the contractile agonist [U-44069, 9.11-dideoxy-9a,11a-epoxymethano PGF2a ] and the tissue subsequently washed at intervals until tension returned to baseline. Agonist dose response curves were obtained using a cumulative-dose schedule (4-8 doses) and the preparations then washed at regular intervals until baseline tension was recorded. After an appropriate interval (1-1.5 hrs) agonist dose response curves were repeated in the presence of antagonist drug concentrations. […] EC50 values were obtained by regression analysis and used to calculate `apparent` and Schild Plot pA2 values by the method of Tallarida and Murray 1981.
# In Table 6 below are presented data indicating the prostanoid antagonist activities of compounds of the present invention indicated in Table 1. It is to be noted that pA2 values are on a logarithmic scale, so that, for instance, a difference between two pA2 values of 1 represents a difference in potency by a factor of 10.
# [2] = tested on: human platelets; experiment: Inhibition of U44069-induced threshold aggregation of human platelets; format: cell-based; conditions: compound A versus compound 1; compound B versus compound 3
# Experimental: INHIBITION OF INDUCED THRESHOLD AGGREGATION OF HUMAN PLATELETS
# Human platelet rich plasma (PRP) is prepared from venous blood of male volunteers who have taken no medication for ten days prior to test. Blood is transferred into plastic centrifuge tubes containing 3.8% Trisodium Citrate in 0.9% NaCl (in a ratio of blood to anticoagulant of 9:1), mixed by gentle inversion, and centrifuged at room temperature for ten minutes at 116 g. The supernatant (PRP) is transferred into plastic tubes. Platelet poor plasma (PPP) is obtained by centrifuging the residual blood cells at 4000 g for ten minutes. PRP is left to stand at least one half hour prior to testing.
# Platelet Aggregation is measured using a Payton Aggregometer and Recorder. […]
# The threshold (approximately 20-30% of maximum) aggregation concentration of the agonist to be used is first determined in the presence of the drug vehicle (control). […]
# The height of the aggegation response (measured in divisions of the recorder paper, 1 division=2.5 mm) in the presence of the drug is recorded, and calculated as percent inhibition of the mean height of the control threshold responses. […]
Structure (SMILES),Kb [1] [nM],further results
COc1ccc2c(c1)c1c(n2Cc2ccc(Cl)cc2)CC(C(=O)O)CC1 (stereo not drawn) [drawing 27],158,–
O=C(O)C1CCCc2c(n(Cc3ccc(Cl)cc3)c3ccc(F)cc23)C1 (stereo not drawn),129,–
"COc1ccc2c(c1)c1c(n2Cc2ccc(Cl)cc2)CC(CC(=O)O)CC1 (stereo not drawn) [Compound A, reference compound]",–,potency as an inhibitor of platelet aggregation relative to the seven-membered ring analog [2]: seventy times less potent than compound 1; factor corresponding to the pA2 difference from compound 1 ([1]; compound A versus compound 1): 15; pA2 lower than that of compound 1 ([1]; compound A versus compound 1): 1.7 log units
O=C(O)CC1CCCCc2c1c1cc(F)ccc1n2Cc1ccc(Cl)cc1 (stereo not drawn),42.7,–
O=C(O)CC1CCCc2c(n(Cc3ccc(Cl)cc3)c3ccc(F)cc23)C1 (stereo not drawn),3.16,–
O=C(O)CC1CCCCc2c1n(Cc1ccc(Cl)cc1)c1ccc(F)cc21 (stereo not drawn),1.35,–
COc1ccc2c(c1)c1c(n2Cc2ccc(Cl)cc2)CC(CC(=O)O)CC1 (stereo not drawn) [drawing 26],158,–
CS(=O)(=O)c1ccc(Cn2c3c(c4cc(F)cc(F)c42)CCCC(CC(=O)O)C3)cc1 (stereo not drawn),8.32,–
"COc1ccc2c(c1)c1c(n2Cc2ccc(Cl)cc2)CC(C(=O)O)CC1 (stereo not drawn) [Compound B, reference compound]",–,"potency as an inhibitor of platelet aggregation relative to the seven-membered ring analog [2]: at least four times less potent than the latter; pA2 compared with compound 3, in words ([1]; compound B versus compound 3): slightly lower pA2 value"
